{"source": "patent US20230077704A1", "about": "“APPLICATION OF NITAZOXANIDE AND ACTIVE FORM THEREOF, TIZOXANIDE, IN TREATMENT OF SARS-COV-2 INFECTION” (priority 2020, published 2023)", "key": {"[1]": {"tested_on": "SARS-CoV-2 (2019-nCoV) virus", "assay_type": "cell-based", "conditions": "for Copy number of virus genome: 100TCID50, 48 hours, supernatant"}, "[2]": {"tested_on": "Vero-E6 cells", "assay": "Cytotoxicity test of drugs, CCK-8 kit", "assay_type": "cell-based", "conditions": "48 hours; for Cell viability (% of vehicle control): Vero-E6 cells", "procedure": "The cytotoxicity test of drugs was carried out by using CCK-8 kit (Beyotime). Specific steps were as follows:\n(1) 1×10^4 Vero-E6 cells (ATCC) were inoculated in a 96-well plate and cultured at 37° C. for 8 hours.\n(2) The drug was diluted with DMSO to an appropriate concentration of mother solution, and then diluted with MEM (purchased from Gibco company, Catalog No. 10370021) medium containing 2% FBS (purchased from Gibco company, Catalog No. 16000044) to the same concentration as that for the drug treatment. The original medium in the 96-well plate was discarded, 100 μL of the drug-containing MEM medium was taken and added to the cells, and three replicate wells were set for each concentration. A vehicle control (adding DMSO and medium to cells in wells, without adding drug) and a blank control (adding DMSO and medium to the wells, without cells) were set up. After the drug was added, the cells were cultured at 37° C. for 48 hours.\n(3) 20 μL of CCK-8 solution (Beyotime) was added to the well to be tested, mixed gently without generating bubbles, and cultured subsequently at 37° C. for 2 hours. OD450 was read on a microplate reader (purchased from Molecular Devices, model: SpectraMax M5), and the cell viability was calculated:\nCell viability (%)=(A(drug treatment group)−A(blank control))/(A(vehicle control)−A(blank control))×100%\nWherein, A was the reading of the microplate reader."}, "[3]": {"tested_on": "rotavirus", "conditions": "clinical trials; cited from earlier work"}, "[4]": {"tested_on": "influenza", "conditions": "600 mg twice daily for five days, adults and adolescents; cited from earlier work"}}, "note": "“Also recorded” adds a separate entry of the source. Read-outs that look alike come from different tables or passages of the source.", "data": [{"smiles": "CC(=O)Oc1ccccc1C(=O)Nc1ncc([N+](=O)[O-])s1", "note": "[nitazoxanide, 2-(acetyloxy)-N-(5-nitro-2-thiazolyl) benzamide]", "values": [{"measurement": "Copy number of virus genome", "setting": "[1]; 0.14 μM, Vero E6 cells", "value": 820470664.5}, {"measurement": "Copy number of virus genome", "setting": "[1]; 0.41 μM, Vero E6 cells", "value": 363337006}, {"measurement": "Copy number of virus genome", "setting": "[1]; 1.23 μM, Vero E6 cells", "value": 76022948.5}, {"measurement": "Copy number of virus genome", "setting": "[1]; 3.70 μM, Vero E6 cells", "value": 21027512.5}, {"measurement": "Copy number of virus genome", "setting": "[1]; 11.11 μM, Vero E6 cells", "value": 5389366.5}, {"measurement": "Copy number of virus genome", "setting": "[1]; 33.33 μM, Vero E6 cells", "value": 1424671.5}, {"measurement": "Copy number of virus genome", "setting": "[1]; 100 μM, Vero E6 cells", "value": 1220444.5}, {"measurement": "Viral RNA load in the cells", "setting": "[1]; Vero E6 cells, 48 hours after infection by SARS-CoV-2, FIG. 1(a)", "value": "can reduce the viral RNA load"}, {"measurement": "Inhibition of replication of SARS-CoV-2 virus genome in the infected supernatant", "setting": "[1]; at concentrations of 100 μM, 33 μM, 11.1 μM and 3.7 μM", "value": "could effectively inhibit the replication"}, {"measurement": "Cell viability (% of vehicle control)", "setting": "[2]; 0.14 μM", "value": "98.78 % of vehicle control"}, {"measurement": "Cell viability (% of vehicle control)", "setting": "[2]; 0.41 μM", "value": "101.40 % of vehicle control"}, {"measurement": "Cell viability (% of vehicle control)", "setting": "[2]; 1.23 μM", "value": "98.54 % of vehicle control"}, {"measurement": "Cell viability (% of vehicle control)", "setting": "[2]; 3.70 μM", "value": "96.47 % of vehicle control"}, {"measurement": "Cell viability (% of vehicle control)", "setting": "[2]; 11.11 μM", "value": "96.03 % of vehicle control"}, {"measurement": "Cell viability (% of vehicle control)", "setting": "[2]; 33.33 μM", "value": "93.58 % of vehicle control"}, {"measurement": "Cell viability (% of vehicle control)", "setting": "[2]; 100 μM", "value": "93.29 % of vehicle control"}, {"measurement": "Toxic effect on the cells (cytotoxicity)", "setting": "[2]; all test concentrations", "value": "no cytotoxicity was observed; also recorded: no toxic effect on the cells"}, {"measurement": "Treatment of diarrhea in children caused by rotavirus infection", "setting": "[3]", "value": "can effectively treat diarrhea"}, {"measurement": "Duration of common influenza", "setting": "[4]", "value": "reduced the duration of common influenza"}]}]}
